{"source": "ChEMBL document CHEMBL4359901", "about": "“Cyclic enaminone as new chemotype for selective cyclooxygenase-2 inhibitory, anti-inflammatory, and analgesic activities” (Eur J Med Chem, 2019)", "key": {"[1]": {"test_system": "Rattus norvegicus", "assay": "Antiinflammatory activity in Sprague-Dawley rat model of carrageenan-induced thermal hyperalgesia assessed as paw withdrawal latency pressure at 50 mg/kg, po administered 1 hr prior to carrageenan challenge and measured after 3 hrs by Randall-Selitto test (reference value: 176.84 +/- 8.1 g)", "type": "functional"}, "[2]": {"assay": "Selectivity index, ratio of IC50 for inhibition of ovine COX1 to IC50 for inhibition of recombinant human COX2"}, "[3]": {"test_system": "Rattus norvegicus", "assay": "Analgesic activity in Wistar albino rat assessed as reaction time at 12.5 mg/kg, ip measured after 180 mins for 15 secs by hot plate method (reference value: 3.87 +/- 0.38 sec)", "type": "functional"}, "[4]": {"test_system": "Rattus norvegicus", "assay": "Antiinflammatory activity in Sprague-Dawley rat model of carrageenan-induced thermal hyperalgesia assessed as paw withdrawal latency time at 50 mg/kg, po administered 1 hr prior to carrageenan challenge and measured after 3 hrs by planter test (reference value: 4.13 +/- 0.45 sec)", "type": "functional"}, "[5]": {"test_system": "Rattus norvegicus", "assay": "Antiinflammatory activity in Sprague-Dawley rat model of carrageenan-induced thermal hyperalgesia assessed as paw withdrawal latency pressure at 30 mg/kg, po administered 1 hr prior to carrageenan challenge and measured after 5 hrs by Randall-Selitto test (reference value: 224.08 +/- 7.12 g)", "type": "functional"}, "[6]": {"test_system": "Rattus norvegicus", "assay": "Antiinflammatory activity in Sprague-Dawley rat model of carrageenan-induced thermal hyperalgesia assessed as paw withdrawal latency pressure at 50 mg/kg, po administered 1 hr prior to carrageenan challenge and measured after 3 hrs by Von-frey test (reference value: 31.65 +/- 3.33 g)", "type": "functional"}, "[7]": {"test_system": "Rattus norvegicus", "assay": "Antiinflammatory activity in Sprague-Dawley rat model of carrageenan-induced thermal hyperalgesia assessed as paw withdrawal latency time at 50 mg/kg, po administered 1 hr prior to carrageenan challenge and measured after 4 hrs by planter test (reference value: 5.47 +/- 0.84 sec)", "type": "functional"}, "[8]": {"test_system": "Rattus norvegicus", "assay": "Analgesic activity in Wistar albino rat assessed as reaction time at 12.5 mg/kg, ip measured after 60 mins for 15 secs by hot plate method (reference value: 4.67 +/- 0.52 sec)", "type": "functional"}, "[9]": {"assay": "Antioxidant activity assessed as DPPH radical scavenging activity at 10 uM/ml incubated for 20 mins by spectrophotometric method relative to control", "type": "functional"}, "[10]": {"test_system": "Rattus norvegicus", "assay": "Antiinflammatory activity in Sprague-Dawley rat model of carrageenan-induced thermal hyperalgesia assessed as paw withdrawal latency pressure at 30 mg/kg, po administered 1 hr prior to carrageenan challenge and measured after 2 hrs by Randall-Selitto test (reference value: 231.13 +/- 3.15 g)", "type": "functional"}, "[11]": {"assay": "Antioxidant activity assessed as DPPH radical scavenging activity at 40 uM/ml incubated for 20 mins by spectrophotometric method relative to control", "type": "functional"}, "[12]": {"test_system": "Rattus norvegicus", "assay": "Analgesic activity in Wistar albino rat assessed as reaction time at 25 mg/kg, ip measured after 120 mins for 15 secs by hot plate method (reference value: 4.32 +/- 0.52 sec)", "type": "functional"}, "[13]": {"test_system": "Rattus norvegicus", "assay": "Antiinflammatory activity in Sprague-Dawley rat model of carrageenan-induced thermal hyperalgesia assessed as paw withdrawal latency time at 50 mg/kg, po administered 1 hr prior to carrageenan challenge and measured after 5 hrs by planter test (reference value: 7.5 +/- 0.74 sec)", "type": "functional"}, "[14]": {"test_system": "Rattus norvegicus", "assay": "Antiinflammatory activity in Sprague-Dawley rat model of carrageenan-induced thermal hyperalgesia assessed as paw withdrawal latency pressure at 50 mg/kg, po administered 1 hr prior to carrageenan challenge and measured after 3 hrs by Randall-Selitto test (reference value: […] g)", "type": "functional"}, "[15]": {"assay": "Antioxidant activity assessed as DPPH radical scavenging activity at 80 uM/ml incubated for 20 mins by spectrophotometric method relative to control", "type": "functional"}, "[16]": {"molecular_target": "Prostaglandin G/H synthase 2 (Homo sapiens) (UniProt P35354)", "sequence (P35354 whole entry, looked up)": "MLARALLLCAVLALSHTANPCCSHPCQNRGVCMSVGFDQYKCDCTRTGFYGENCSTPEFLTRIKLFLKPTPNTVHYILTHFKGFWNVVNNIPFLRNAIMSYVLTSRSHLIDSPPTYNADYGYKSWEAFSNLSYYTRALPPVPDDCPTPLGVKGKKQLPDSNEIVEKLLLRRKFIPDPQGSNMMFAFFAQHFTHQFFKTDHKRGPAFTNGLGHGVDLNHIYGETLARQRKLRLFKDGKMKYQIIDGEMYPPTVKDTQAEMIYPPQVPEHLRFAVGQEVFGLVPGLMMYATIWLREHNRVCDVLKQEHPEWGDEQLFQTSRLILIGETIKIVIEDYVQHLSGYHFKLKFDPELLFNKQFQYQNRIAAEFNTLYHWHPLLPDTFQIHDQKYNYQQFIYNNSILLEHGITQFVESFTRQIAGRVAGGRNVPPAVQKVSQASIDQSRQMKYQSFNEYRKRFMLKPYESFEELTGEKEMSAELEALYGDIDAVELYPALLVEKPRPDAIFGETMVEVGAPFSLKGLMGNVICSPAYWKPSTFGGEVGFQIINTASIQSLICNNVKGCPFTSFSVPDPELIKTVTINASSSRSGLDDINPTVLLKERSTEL", "assay": "Inhibition of recombinant human COX2 assessed as reduction in PGF2alpha at 10 uM incubated for 2 mins using arachidonic acid as substrate by ELISA relative to control"}, "[17]": {"test_system": "Rattus norvegicus", "assay": "Antiinflammatory activity in Sprague-Dawley rat model of carrageenan-induced thermal hyperalgesia assessed as paw withdrawal latency time at 30 mg/kg, po administered 1 hr prior to carrageenan challenge and measured after 5 hrs by planter test (reference value: 7.5 +/- 0.74 sec)", "type": "functional"}, "[18]": {"test_system": "Rattus norvegicus", "assay": "Antiinflammatory activity in Sprague-Dawley rat model of carrageenan-induced thermal hyperalgesia assessed as paw withdrawal latency time at 30 mg/kg, po administered 1 hr prior to carrageenan challenge and measured after 1 hr by planter test (reference value: 8.88 +/- 0.52 sec)", "type": "functional"}, "[19]": {"test_system": "Rattus norvegicus", "assay": "Antiinflammatory activity in Wistar albino rat assessed as reduction in carrageenan-induced paw volume at 12.5 mg/kg, ip measured after 2 hrs by plethysmometric method (reference value: 1.58 +/- 0.21 ml)", "type": "functional"}, "[20]": {"test_system": "Rattus norvegicus", "assay": "Antiinflammatory activity in Sprague-Dawley rat model of carrageenan-induced thermal hyperalgesia assessed as paw withdrawal latency pressure at 30 mg/kg, po administered 1 hr prior to carrageenan challenge and measured after 5 hrs by Von-frey test (reference value: 169.58 +/- 4.26 g)", "type": "functional"}, "[21]": {"test_system": "Rattus norvegicus", "assay": "Antiinflammatory activity in Sprague-Dawley rat model of carrageenan-induced thermal hyperalgesia assessed as paw withdrawal latency pressure at 50 mg/kg, po administered 1 hr prior to carrageenan challenge and measured after 5 hrs by Randall-Selitto test (reference value: 224.08 +/- 7.12 g)", "type": "functional"}, "[22]": {"test_system": "Rattus norvegicus", "assay": "Antiinflammatory activity in Sprague-Dawley rat model of carrageenan-induced thermal hyperalgesia assessed as paw withdrawal latency pressure at 30 mg/kg, po administered 1 hr prior to carrageenan challenge and measured after 3 hrs by Randall-Selitto test (reference value: 176.84 +/- 8.1 g)", "type": "functional"}, "[23]": {"test_system": "Rattus norvegicus", "assay": "Antiinflammatory activity in Sprague-Dawley rat model of carrageenan-induced thermal hyperalgesia assessed as paw withdrawal latency pressure at 50 mg/kg, po administered 1 hr prior to carrageenan challenge and measured after 3 hrs by Von-frey test (reference value: 146.61 +/- 1.58 g)", "type": "functional"}, "[24]": {"test_system": "Rattus norvegicus", "assay": "Antiinflammatory activity in Sprague-Dawley rat model of carrageenan-induced thermal hyperalgesia assessed as paw withdrawal latency pressure at 30 mg/kg, po administered 1 hr prior to carrageenan challenge and measured after 4 hrs by Randall-Selitto test (reference value: 200.08 +/- 10.22 g)", "type": "functional"}, "[25]": {"test_system": "Rattus norvegicus", "assay": "Antiinflammatory activity in Wistar albino rat assessed as reduction in carrageenan-induced paw volume at 12.5 mg/kg, ip measured after 3 hrs by plethysmometric method (reference value: 1.75 +/- 0.33 ml)", "type": "functional"}, "[26]": {"assay": "Ulcerogenicity in Sprague-Dawley rat assessed as formation of ulcer at 50 mg/kg, po after 1 hr by microscopic analysis", "type": "toxicity, organism-based", "conditions": "in vivo"}, "[27]": {"assay": "Antioxidant activity assessed as DPPH radical scavenging activity at 20 uM/ml incubated for 20 mins by spectrophotometric method relative to control", "type": "functional"}, "[28]": {"test_system": "Rattus norvegicus", "assay": "Antiinflammatory activity in Sprague-Dawley rat model of carrageenan-induced thermal hyperalgesia assessed as paw withdrawal latency time at 30 mg/kg, po administered 1 hr prior to carrageenan challenge and measured after 4 hrs by planter test (reference value: 5.47 +/- 0.84 sec)", "type": "functional"}, "[29]": {"assay": "Antioxidant activity assessed as DPPH radical scavenging activity incubated for 20 mins by spectrophotometric method", "type": "functional"}}, "note": "pIC50: −log10 of the molar value."}
{"smiles": "CC(=O)N(C1=CC(=O)CCC1)c1ccc(Cl)cc1", "values": [{"measurement": "Activity", "setting": "[1]", "value": 263.26, "unit": "g"}, {"measurement": "Ratio IC50", "setting": "[2]", "value": 109}, {"measurement": "Time", "setting": "[3]", "value": 8.22, "unit": "s"}, {"measurement": "Time", "setting": "[4]", "value": 8.38, "unit": "s"}, {"measurement": "Activity", "setting": "[5]", "value": 264.48, "unit": "g"}, {"measurement": "Activity", "setting": "[6]", "value": 166.86, "unit": "g"}, {"measurement": "Time", "setting": "[7]", "value": 9.58, "unit": "s"}, {"measurement": "Time", "setting": "[8]", "value": 6.85, "unit": "s"}, {"measurement": "Activity", "setting": "[9]", "value": 6.18, "unit": "%"}, {"measurement": "Activity", "setting": "[10]", "value": 262.26, "unit": "g"}, {"measurement": "Activity", "setting": "[11]", "value": 48, "unit": "%"}, {"measurement": "Time", "setting": "[12]", "value": 11.58, "unit": "s"}, {"measurement": "Time", "setting": "[13]", "value": 9.3, "unit": "s"}, {"measurement": "Activity", "setting": "[14]", "value": 265.61, "unit": "g"}, {"measurement": "Activity", "setting": "[15]", "value": 83.9, "unit": "%"}, {"measurement": "inhibition", "setting": "[16]", "value": 96.9, "unit": "%"}, {"measurement": "Time", "setting": "[17]", "value": 6.37, "unit": "s"}, {"measurement": "Time", "setting": "[18]", "value": 10.58, "unit": "s"}, {"measurement": "Activity", "setting": "[19]", "value": 1.26, "unit": "mL"}, {"measurement": "Activity", "setting": "[20]", "value": 161.8, "unit": "g"}, {"measurement": "Activity", "setting": "[21]", "value": 266.61, "unit": "g"}, {"measurement": "Activity", "setting": "[22]", "value": 249.49, "unit": "g"}, {"measurement": "Activity", "setting": "[23]", "value": 169.23, "unit": "g"}, {"measurement": "Activity", "setting": "[24]", "value": 258.94, "unit": "g"}, {"measurement": "Activity", "setting": "[25]", "value": 1.18, "unit": "mL"}, {"measurement": "UI", "setting": "[26]", "value": 0}, {"measurement": "Activity", "setting": "[27]", "value": 22.4, "unit": "%"}, {"measurement": "Time", "setting": "[28]", "value": 6.67, "unit": "s"}, {"measurement": "pIC50", "setting": "[29]", "value": 4.32}]}
